PubChem BioAssay (NCI)
“And” between values parts separate entries of the source, which are not always exact repeats. Identical values can stand only once.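 The compound was tested at five concentrations on cells cultured in 96-well plates, with a 48-hour exposure period. GI50 is the concentration that inhibits growth by half. TGI is the concentration that stops growth completely.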

Key:
Experiment in all cases: NCI tumour cell line growth inhibition, 48 h
A498 renal = test system: A498 renal
COLO 205 colon = test system: COLO 205 colon
HOP-62 NSCLC = test system: HOP-62 NSCLC
HOP-92 NSCLC = test system: HOP-92 NSCLC
NCI-H522 lung = test system: NCI-H522 lung
OVCAR-8 ovarian = test system: OVCAR-8 ovarian
SN12C renal = test system: SN12C renal
SNB-19 CNS = test system: SNB-19 CNS
U251 CNS = test system: U251 CNS
UO-31 renal = test system: UO-31 renal

Row | Structure (SMILES) | TGI (A498 renal) | GI50 (COLO 205 colon) | TGI (COLO 205 colon) | TGI (HOP-62 NSCLC) | GI50 (HOP-92 NSCLC) | TGI (HOP-92 NSCLC) | GI50 (NCI-H522 lung) | TGI (NCI-H522 lung) | GI50 (OVCAR-8 ovarian) | TGI (OVCAR-8 ovarian) | GI50 (SN12C renal) | TGI (SN12C renal) | TGI (SNB-19 CNS) | GI50 (U251 CNS) | TGI (U251 CNS) | GI50 (UO-31 renal) | TGI (UO-31 renal) | GI50 (A498 renal) | GI50 (HOP-62 NSCLC) | GI50 (SNB-19 CNS)
1 | Nc1nc2c(ncn2C2OC(CO)C(O)C2O)c(=O)[nH]1 (stereo not given) | 8.79 µM | > 100 µM | > 100 µM and 113 µM | 211 µM | > 100 µM and 82.5 µM | > 100 µM and 263 µM | > 100 µM | > 100 µM and 149 µM | > 100 µM and 15 µM | > 100 µM and 204 µM | > 100 µM | > 100 µM and 162 µM | > 100 µM and 21.6 µM | > 100 µM | > 100 µM and 237 µM | > 100 µM | > 100 µM and 204 µM |  |  | 
2 | CC(C)(C)c1cnc(CSc2cnc(NC(=O)C3CCNCC3)s2)o1 | 0.598 µM and 0.714 µM | 0.0687 µM and 0.0561 µM | 0.207 µM and 0.24 µM | 7.06 µM and > 8.87 µM | 0.114 µM and 0.17 µM | 0.544 µM and 0.657 µM | 0.189 µM and 0.175 µM | 0.494 µM and 0.565 µM | 0.307 µM and 0.365 µM | 19.7 µM and > 10 µM | 0.262 µM and 0.215 µM | > 63.3 µM | > 100 µM | 0.193 µM and 0.2 µM | 27.6 µM and > 10 µM | 5.6 µM and 2.07 µM | 21.7 µM and > 8.99 µM | 0.223 µM and 0.23 µM | 0.282 µM and 0.343 µM | 0.244 µM and 0.259 µM
3 | CCOc1ccccc1NC(=O)C1=C(C)NC(C)=C(C(=O)Nc2ccccc2OCC)C1c1ccc2c(c1)OCO2 | 84 µM |  | > 100 µM | > 100 µM |  | 56 µM |  | 29.8 µM |  | > 100 µM |  | > 100 µM | > 100 µM |  | > 100 µM |  | > 100 µM |  |  | 
4 | Clc1ccc(/C=C/c2csnn2)cc1 | > 100 µM |  | > 100 µM | > 100 µM |  | > 100 µM |  | > 100 µM |  | > 100 µM |  | > 100 µM | > 100 µM |  | > 100 µM |  | > 100 µM |  |  | 
5 | Cc1c(C(=O)/C=C/c2ccc3c(c2)OCO3)[n+](=O)c2ccccc2n1[O-] | 64 µM |  | 78.7 µM | > 100 µM |  | 69.7 µM |  | 36.9 µM |  | 62.9 µM |  | > 100 µM | > 100 µM |  | > 100 µM |  | 97.4 µM |  |  | 
6 | CN1CCC(C(=O)Nc2n[nH]c3nnc(-c4ccccc4)cc23)CC1 | > 21.5 µM | > 25 µM | > 25 µM | > 25 µM | 11.3 µM | > 25 µM | > 25 µM | > 25 µM | > 25 µM | > 25 µM | > 25 µM | > 25 µM | > 25 µM | > 25 µM | > 25 µM | > 25 µM | > 25 µM | 5.67 µM | > 25 µM | > 25 µM
7 | Cc1nc2sc(C(=O)Nc3cccc(Cl)c3)c(N)c2cc1C(O)c1ccccc1 (stereo not given) | 0.815 µM | 3.31 µM | > 100 µM | 25.5 µM | 10.4 µM | 31.3 µM | 1.15 µM | 18.3 µM | 2.51 µM | > 100 µM | 0.976 µM | 13.6 µM | 20.3 µM | 0.584 µM | > 100 µM | 2.37 µM | 15.6 µM | 0.181 µM | 1.45 µM | 2.33 µM
8 | CN(C)CC(=O)N1CCc2c([nH]c3ccccc23)C1c1cccnc1 (stereo not given) | > 100 µM | 99.7 µM | > 100 µM | > 100 µM |  | > 100 µM |  | > 100 µM |  | > 100 µM |  | > 100 µM | > 100 µM |  | > 100 µM |  | > 100 µM |  |  | 
9 | NCC[PH+](c1ccccc1)c1ccccc1.NCC[PH+](c1ccccc1)c1ccccc1.[Cl-].[Pt+4] | > 100 µM | > 100 µM | > 100 µM | > 100 µM | > 100 µM | > 100 µM | > 87.1 µM | > 100 µM | > 100 µM | > 100 µM | > 100 µM | > 100 µM | > 100 µM | 39.3 µM | > 100 µM | > 100 µM | > 100 µM | > 100 µM | > 100 µM | 46.1 µM
10 | Clc1cc(Cl)cc(Nc2ccc3c(OCCCN4CCOCC4)cccc3n2)c1 | 12.1 µM | 1.77 µM | 3.56 µM | 7.03 µM | 2.03 µM | 6.94 µM | 1.82 µM | 3.57 µM | 3.54 µM | 13.3 µM | 10.8 µM | 26.8 µM | 4.39 µM | 1.98 µM | 3.95 µM | 1.51 µM | 2.94 µM | 2.39 µM | 2.29 µM | 2.08 µM
11 | COc1cc2c(cc1OC)C(Sc1ccc(Cl)cc1)c1c(nc(N)c(C#N)c1N)O2 (stereo not given) | 5.01 µM | 1.43 µM | 2.95 µM | 2.88 µM | 1.51 µM | 3.19 µM | 1.29 µM | 2.64 µM | 1.39 µM | 2.76 µM | 1.51 µM | 2.94 µM | 2.86 µM | 0.916 µM | 2.14 µM | 1.21 µM | 2.46 µM | 1.73 µM | 1.53 µM | 1.47 µM
12 | COc1ccc(-c2nn(-c3cccc(Cl)c3)cc2-c2c(C#N)c(=O)n3[nH]c(-c4ccc(C)o4)nc3c2C#N)cc1 | 10.7 µM | 5.47 µM | 11.6 µM | > 50 µM | 0.463 µM | 3.44 µM | 4.96 µM | 23.1 µM | 5.91 µM | > 50 µM | 5.3 µM | > 50 µM | > 50 µM | 4.71 µM | > 50 µM | 1.8 µM | 38.9 µM | 1.55 µM | 14.1 µM | 8.63 µM
13 | COc1ccc(C2NC(c3ccc(OC)cc3)C(C)C(=O)C2C)cc1 (stereo not given) | > 100 µM |  | > 100 µM | > 100 µM |  | > 100 µM |  | > 100 µM |  | > 100 µM |  | > 100 µM | > 100 µM |  | > 100 µM |  | > 100 µM |  |  | 
14 | CC1(O)CC2C(CC1SCc1ccccc1)C2(C)C (stereo not given) | 57.9 µM and 32.5 µM |  | 35.6 µM and 30.6 µM | 57.9 µM and 30.5 µM |  | 66.4 µM and 14.4 µM |  | 29.1 µM and 25.2 µM |  | > 100 µM and 30.9 µM |  | 43 µM and 29.5 µM | > 100 µM and 30.7 µM |  | 44.7 µM and 29.7 µM | 31.2 µM and 14.5 µM | > 100 µM and 27.9 µM |  |  | 45.2 µM and 16.7 µM
15 | c1ccc2c(c1)n1nnnc1c1nnnn21 | > 100 µM |  | > 100 µM | > 100 µM |  | > 100 µM |  | > 100 µM |  | > 100 µM |  | > 100 µM | > 100 µM |  | > 100 µM |  | > 100 µM |  |  | 
